Reference: article PMC9407205, “Neuroprotective Potential of Thinned Peaches Extracts Obtained by Pressurized Liquid Extraction after Different Drying Processes” (Foods, 2022)
Marks after values point to notes of the source that are not given here.

What was measured:
[1] = parallel artificial membrane permeability assay for the BBB (PAMPA-BBB); format: in vitro ADME; conditions: metabolites in the five PLE extracts, 4 h at 37 °C, pH 7.4; result in words
Method: The parallel artificial membrane permeability assay for the BBB assay was carried out as previously described with some modifications. Briefly, 20 mg/mL thinned peach extracts in 50% ethanol (v/v) was diluted to 5 mg/mL with potassium phosphate buffer (10 mmol/L, pH 7.4). Then, 350 μL of 5 mg/mL extracts and 350 μL of buffer were added to each well of the donor plate and the acceptor plate, respectively. The filter membrane of the donor plate was coated with 5 µL of BBB solution. Afterwards, the whole plate was incubated in the dark for 4 h at 37 °C. After incubation, 300 µL of sample from each well in the donor and acceptor plates was taken out, collected and dried. The dried acceptor and donor samples were redissolved in 50 µL of ethanol and analyzed via HPLC-Q-TOF-MS/MS as described below. The permeability across the artificial BBB of each compound was calculated in terms of cm/s, as in [16].

[2] = ROS scavenging capacity, oxygen radical absorbance capacity (ORAC) assay; conditions: PLE extracts under optimized conditions (50% ethanol, 180 °C) and reference standard
Method: The ROS scavenging capacity was measured using the oxygen radical absorbance capacity (ORAC) assay described by Ou et al. (2001). Briefly, the reaction mixture contained 100 μL of samples at different concentrations in 10% ethanol (v/v), 100 μL of 590 mmol/L AAPH in 30 mmol/L phosphate buffer (pH 7.5), 100 μL of phosphate buffer and 25 μL of 10 μmol/L fluorescein in buffer. The absorbance was read at the 485 nm excitation spectrum and 528 nm emission spectrum, and recorded at 5 min intervals for 60 min at 37 °C. Ascorbic acid was used as the reference standard and 10% ethanol (v/v) was used as the control. The ROS scavenging capacity was calculated as described by Sánchez-Martínez et al. (2021).

[3] = RNS scavenging capacity, nitric oxide (NO) radical scavenging assay; conditions: at the maximum concentration tested, 0.8 mg/mL; PLE extracts under optimized conditions and ascorbic acid
Method: The RNS scavenging capacity was estimated by referring to the nitric oxide (NO) radical scavenging assay described by Ho et al. (2010), with some modifications. In brief, 100 μL of the thinned peach extracts in 25% ethanol (v/v) was mixed with 50 μL of 5 mM sodium nitroprusside dehydrate in buffer (30 mmol/L phosphate buffer at pH 7.5) using a transparent 96-well plate. The mixtures were placed under white light at room temperature for 60 min. Afterwards, 100 μL of Griess reagent (500 mg sulphanilamide, 50 mg naphthylethylene diamine dihydrochloride and 1.25 mL of phosphoric acid in 48.5 mL of H2O) was added to each well. The mixtures were allowed to stand for 5 min and the absorbance was read at 546 nm. Ascorbic acid was used as the reference standard and the NO scavenging capacity was calculated as described by Sánchez-Martínez et al. (2021).

Structure (SMILES)	ability to cross the artificial BBB [1]	ROS (IC50) [2]	RNS, percentage of inhibition of nitrogen species with respect to the control [3]
CC(=O)c1ccc(O)c(O)c1 [3,4-dihydroxyacetophenone, 3,4-Dihydroxyacetophenone]	could cross the BBB	–	–
Cc1cc(=O)oc2c(O)c(O)ccc12 [4-methyldaphnetin, 4-Methyldaphnetin]	could cross the BBB	–	–
CCCCCCCC(O)/C=C\C(O)CCC(O)CCCC(=O)O (stereo not shown) [(9Z)-5,8,11-Trihydroxyoctadec-9-enoic acid]	could cross the BBB	–	–
O=C1O[C@H]([C@@H](O)CO)C(O)=C1O [Ascorbic acid]	–	3.3 ± 0.6 ^e µg/mL	83.8 ± 4 ^a %
COc1ccc(/C=C/C(=O)O)cc1O [isoferulic acid, Isoferulic acid]	could cross the BBB	–	–
CC1(C)CC[C@]2(C(=O)O)CC[C@]3(C)C(=CCC4[C@@]5(C)C[C@@H](O)[C@H](O)[C@](C)(CO)C5CC[C@]43C)[C@@H]2[C@@H]1O (stereo partly drawn) [triterpenoid 3, (1S,4aR,6aS,6bR,9S,10R,11R,12aR,14bS)-1,10,11-trihydroxy-9-(hydroxymethyl)-2,2,6a,6b,9,12a-hexamethyl-1,3,4,5,6,6a,7,8,8a,10,11,12,13,14b-tetradecahydropicene-4a-carboxylic acid]	highest permeability value	–	–
